Values quoted from earlier work in US20120190646A1, “Compositions Comprising Thalidomide and Artemisinin for the Treatment of Cancer” (priority 2009, published 2012).

Settings: multiple myeloma patients; thalidomide administered without prophylaxis; 'as high as'

For O=C1CCC(N2C(=O)c3ccccc3C2=O)C(=O)N1 (racemic) [thalidomide, 2-(2,6-dioxo-3-piperidinyl)-1H-isoindole-1,3(2H)-dione], the VTE rates is given as no more than 26%.
